# Measured values from US9447038B2 (SANOFI, priority 2012, dated 2016).
# Target: human CXCR3-A receptor (Homo sapiens (Human), UniProt P49682)
# Assay: 125I-CXCL10 competition radioligand binding assay;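 also: One-hour incubation of membranes with tracer, bound radioligand separated by glass fibre filtration, IC50 derived from four-parameter nonlinear fit of competition curves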
# Details: displacement of 125I-CXCL10 from membranes of CHO cells expressing human recombinant CXCR3-A
# Chain of human CXCR3-A receptor (P49682 whole entry): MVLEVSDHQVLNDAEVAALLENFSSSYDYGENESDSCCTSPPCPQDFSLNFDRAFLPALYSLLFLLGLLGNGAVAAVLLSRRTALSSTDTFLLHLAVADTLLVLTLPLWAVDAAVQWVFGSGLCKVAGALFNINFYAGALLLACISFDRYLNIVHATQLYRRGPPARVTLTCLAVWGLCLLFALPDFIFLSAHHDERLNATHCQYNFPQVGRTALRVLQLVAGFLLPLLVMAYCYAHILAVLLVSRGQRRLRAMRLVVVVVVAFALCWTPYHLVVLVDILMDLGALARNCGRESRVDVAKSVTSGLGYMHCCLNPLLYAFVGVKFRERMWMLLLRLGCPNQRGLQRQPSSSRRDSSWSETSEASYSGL
row,IC50 [nM],Compound
1,183,"CCCN(Cc1ccc(OCCN2C(=O)CCC2=O)c(C)c1)C(CC(=O)O)c1ccc(C)cc1 (stereo not drawn) [Example 178, 3-({4-[2-(2,5-Dioxo-pyrrolidin-1-yl)-ethoxy]-3-methyl-benzyl}-propyl-amino)-3-p-tolyl-propionic acid]"
2,75,"Cc1cc(CN(CC(C)C)C(CC(=O)O)c2ccc3c(c2)CCO3)ccc1OCCn1c(=O)ccn(C)c1=O (stereo not drawn) [Example 158, 3-(2,3-Dihydro-benzofuran-5-yl)-3-(isobutyl-{3-methyl-4-[2-(3-methyl-2,6-dioxo-3,6-dihydro-2H-pyrimidin-1-yl)-ethoxy]-benzyl}-amino)-propionic acid]"
3,177,"CCCN(Cc1ccc(CCCN2C(=O)CCC2=O)c(OC)c1)C(CC(=O)O)c1ccc(Cl)cc1 (stereo not drawn) [Example 133, 3-(4-Chloro-phenyl)-3-({4-[3-(2,5-dioxo-pyrrolidin-1-yl)-propyl]-3-methoxy-benzyl}-propyl-amino)-propionic acid]"
4,635,"CCN(Cc1ccc(OCCn2c(=O)ccn(C)c2=O)c(OC)c1)C(c1ccc(Cl)cc1)C(C)C(=O)O (stereo not drawn) [Example 153, 3-(4-Chloro-phenyl)-3-(ethyl-{3-methoxy-4-[2-(3-methyl-2,6-dioxo-3,6-dihydro-2H-pyrimidin-1-yl)-ethoxy]-benzyl}-amino)-2-methyl-propionic acid]"
5,58,"CCN(Cc1ccc(OCCn2c(=O)ccn(C)c2=O)c(C)c1)C(CC(=O)O)c1ccc2c(c1)CCO2 (stereo not drawn) [Example 154, 3-(2,3-Dihydro-benzofuran-5-yl)-3-(ethyl-{3-methyl-4-[2-(3-methyl-2,6-dioxo-3,6-dihydro-2H-pyrimidin-1-yl)-ethoxy]-benzyl}-amino)-propionic acid]"
6,211,"Cc1cc(CN(CC2CCCCC2)C(CC(=O)O)c2ccc3c(c2)CCO3)ccc1CCCN1C(=O)CCC1=O (stereo not drawn) [Example 143, 3-(Cyclohexylmethyl-{4-[3-(2,5-dioxo-pyrrolidin-1-yl)-propyl]-3-methyl-benzyl}-amino)-3-(2,3-dihydro-benzofuran-5-yl)-propionic acid]"

# The next lines start with the compound.
row,Compound,IC50 [nM]
1,"COc1cc(CN(CC2CC2)C(CC(=O)O)c2ccc(Cl)c(Cl)c2)ccc1OCCN1C(=O)CCC1=O (stereo not drawn) [Example 45, 3-(Cyclopropylmethyl-{4-[2-(2,5-dioxo-pyrrolidin-1-yl)-ethoxy]-3-methoxy-benzyl}-amino)-3-(3,4-dichloro-phenyl)-propionic acid]",66
2,"CCCCN(Cc1ccc(OCCN2C(=O)CCC2=O)c(C)c1)C(CC(=O)O)c1ccc(Cl)c(F)c1 (stereo not drawn) [Example 76, 3-(Butyl-{4-[2-(2,5-dioxo-pyrrolidin-1-yl)-ethoxy]-3-methyl-benzyl}-amino)-3-(4-chloro-3-fluoro-phenyl)-propionic acid]",54
3,"CCCN(Cc1ccc(OCCN2C(=O)CCC2=O)c(OC)c1)C(CC(=O)O)c1ccc(Cl)c(Cl)c1 (stereo not drawn) [Example 46, 3-(3,4-Dichloro-phenyl)-3-({4-[2-(2,5-dioxo-pyrrolidin-1-yl)-ethoxy]-3-methoxy-benzyl}-propyl-amino)-propionic acid]",118
4,"O=C(O)CC(c1ccc(Cl)cc1)N(Cc1ccc(OCCN2C(=O)CCC2=O)c(F)c1)CC1CCCCC1 (stereo not drawn) [Example 57, 3-(4-Chloro-phenyl)-3-(cyclohexylmethyl-{4-[2-(2,5-dioxo-pyrrolidin-1-yl)-ethoxy]-3-fluoro-benzyl}-amino)-propionic acid]",212
5,"COc1cc(CN(CC2CC2)C(CC(=O)O)c2ccc(Cl)cc2)ccc1CCCN1C(=O)CCC1=O (stereo not drawn) [Example 132, 3-(4-Chloro-phenyl)-3-(cyclopropylmethyl-{4-[3-(2,5-dioxo-pyrrolidin-1-yl)-propyl]-3-methoxy-benzyl}-amino)-propionic acid]",192
6,"COc1cc(CN(CC2CCCC2)C(CC(=O)O)c2ccc(Cl)c(Cl)c2)ccc1OCCN1C(=O)CCC1=O (stereo not drawn) [Example 49, 3-(Cyclopentylmethyl-{4-[2-(2,5-dioxo-pyrrolidin-1-yl)-ethoxy]-3-methoxy-benzyl}-amino)-3-(3,4-dichloro-phenyl)-propionic acid]",61
